From article PMC11207073, “Protein Tyrosine Phosphatase 1B Inhibitors of Pueraria lobata Based on the Spectrum–Effect Relationship by Q-Marker Selection” (Molecules, 2024) come the findings set out here.

Structures are written as SMILES. pIC50: −log10 of the molar value.

The target of this assay is T1, Protein tyrosine phosphatase 1B (PTP1B) (Homo sapiens, UniProt P18031).
T1 construct: gene PTPN1
T1 sequence (P18031 1-435): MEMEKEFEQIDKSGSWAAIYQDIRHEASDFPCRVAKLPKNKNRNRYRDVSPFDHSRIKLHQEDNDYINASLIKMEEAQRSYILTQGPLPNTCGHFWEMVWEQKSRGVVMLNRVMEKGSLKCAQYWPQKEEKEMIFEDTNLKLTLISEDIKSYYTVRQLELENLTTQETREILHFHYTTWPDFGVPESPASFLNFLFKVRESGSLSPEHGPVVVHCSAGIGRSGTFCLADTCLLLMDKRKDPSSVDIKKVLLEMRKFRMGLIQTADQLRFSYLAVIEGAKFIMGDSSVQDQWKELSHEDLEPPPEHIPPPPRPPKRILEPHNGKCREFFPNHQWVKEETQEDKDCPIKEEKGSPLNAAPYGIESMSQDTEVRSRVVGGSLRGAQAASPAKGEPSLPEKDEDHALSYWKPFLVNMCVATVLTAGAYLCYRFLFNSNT
The assay is described as follows: pNPP phosphatase assay with commercial PTP1B, absorbance at […] nm. Format: biochemical.
As a reminder, the pIC50 is the negative decadic logarithm of the IC50, by convention in mol/L. A high value points to a low IC50. `COc1cc2c(=O)c(-c3ccc(O)cc3)coc2cc1O[C@@H]1O[C@H](CO)[C@@H](O)[C@H](O)[C@H]1O` (single isomer, unassigned) [peak 9, glycitin] had a pIC50 of 4.63.
`O=c1c(-c2ccc(O)cc2)coc2cc(O[C@@H]3O[C@H](CO)[C@@H](O)[C@H](O)[C@H]3O)cc(O)c12` (single isomer, unassigned) [peak 11, genistin] showed a negative-log IC50 (pIC50) of 4.42.
Molecule `COc1ccc(-c2coc3c([C@@H]4O[C@H](CO)[C@@H](O)[C@H](O)[C@H]4O)c(O)ccc3c2=O)cc1` (single isomer, unassigned) [peak 12, 4′-methoxypuerarin] gave a pIC50 of 4.66.
